Data from article PMC9005681, “Use of AD Informer Set compounds to explore validity of novel targets in Alzheimer's disease pathology” (Alzheimer's & Dementia : Translational Research & Clinical …, 2022).
Several values for one entry are separate records, joined by “and”; a condition that tells them apart may be missing. Equal values may be shown once.

Assays:
Test in all cases: PDSP GPCR panel primary binding assays at 10 μM
Details in all cases: primary assay
[1] = target: T1, cloned human or rodent CNS receptors, channels, and transporters (PDSP panel) (Homo sapiens, UniProt P21917)
T1 construct: expressed in transfected cells
T1 sequence (P21917 1-419): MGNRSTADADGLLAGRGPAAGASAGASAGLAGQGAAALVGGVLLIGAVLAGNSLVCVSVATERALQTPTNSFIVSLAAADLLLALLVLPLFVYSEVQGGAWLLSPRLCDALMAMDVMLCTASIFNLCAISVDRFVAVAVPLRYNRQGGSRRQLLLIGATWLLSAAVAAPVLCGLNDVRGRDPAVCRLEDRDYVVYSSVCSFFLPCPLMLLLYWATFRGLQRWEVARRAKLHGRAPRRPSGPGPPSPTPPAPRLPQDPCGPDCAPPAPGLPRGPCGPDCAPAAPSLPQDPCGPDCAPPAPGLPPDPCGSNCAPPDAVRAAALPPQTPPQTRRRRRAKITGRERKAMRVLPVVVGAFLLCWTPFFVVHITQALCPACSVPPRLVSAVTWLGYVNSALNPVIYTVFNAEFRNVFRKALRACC
Outline: (§1)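 Radioligand displacement at cloned human or rodent CNS targets: 46–47 primary binding assays run in quadruplicate at 10 μM. Targets where the compound displaced an average of >50% of radiolabeled standard ligand went to secondary binding in 11-point dose-response, in triplicate; none run for H3, PBR or GABAA.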

[2] = target: T2, cloned human or rodent CNS receptors, channels, and transporters (PDSP panel) (Homo sapiens, UniProt P28566)
T2 construct: expressed in transfected cells
T2 sequence (P28566 whole entry): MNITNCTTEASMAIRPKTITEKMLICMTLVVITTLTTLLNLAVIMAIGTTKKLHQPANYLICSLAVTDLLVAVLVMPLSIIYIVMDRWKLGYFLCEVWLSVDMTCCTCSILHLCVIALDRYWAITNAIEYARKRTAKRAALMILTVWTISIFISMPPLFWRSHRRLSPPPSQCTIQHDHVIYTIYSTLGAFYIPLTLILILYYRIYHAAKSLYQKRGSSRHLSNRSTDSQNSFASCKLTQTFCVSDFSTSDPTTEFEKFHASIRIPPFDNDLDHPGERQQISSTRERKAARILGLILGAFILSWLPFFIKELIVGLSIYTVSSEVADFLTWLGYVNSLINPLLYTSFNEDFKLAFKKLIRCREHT
Outline: as §1

[3] = target: T3, cloned human or rodent CNS receptors, channels, and transporters (PDSP panel) (Homo sapiens, UniProt P35367)
T3 construct: expressed in transfected cells
T3 sequence (P35367 whole entry): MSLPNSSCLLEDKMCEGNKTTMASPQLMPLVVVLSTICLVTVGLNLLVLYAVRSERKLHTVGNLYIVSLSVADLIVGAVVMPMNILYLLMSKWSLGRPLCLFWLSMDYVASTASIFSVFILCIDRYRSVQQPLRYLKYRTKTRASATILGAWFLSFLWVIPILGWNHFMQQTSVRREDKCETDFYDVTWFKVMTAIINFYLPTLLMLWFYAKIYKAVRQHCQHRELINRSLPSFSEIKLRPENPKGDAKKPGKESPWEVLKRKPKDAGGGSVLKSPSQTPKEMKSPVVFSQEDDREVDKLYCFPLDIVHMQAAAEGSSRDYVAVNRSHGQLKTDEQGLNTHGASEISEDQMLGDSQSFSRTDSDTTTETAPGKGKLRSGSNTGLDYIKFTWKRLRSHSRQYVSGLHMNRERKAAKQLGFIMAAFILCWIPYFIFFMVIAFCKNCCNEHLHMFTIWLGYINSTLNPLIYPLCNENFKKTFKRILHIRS
Outline: as §1

[4] = target: T4, cloned human or rodent CNS receptors, channels, and transporters (PDSP panel) (Homo sapiens, UniProt P35372)
T4 construct: expressed in transfected cells
T4 sequence (P35372 whole entry): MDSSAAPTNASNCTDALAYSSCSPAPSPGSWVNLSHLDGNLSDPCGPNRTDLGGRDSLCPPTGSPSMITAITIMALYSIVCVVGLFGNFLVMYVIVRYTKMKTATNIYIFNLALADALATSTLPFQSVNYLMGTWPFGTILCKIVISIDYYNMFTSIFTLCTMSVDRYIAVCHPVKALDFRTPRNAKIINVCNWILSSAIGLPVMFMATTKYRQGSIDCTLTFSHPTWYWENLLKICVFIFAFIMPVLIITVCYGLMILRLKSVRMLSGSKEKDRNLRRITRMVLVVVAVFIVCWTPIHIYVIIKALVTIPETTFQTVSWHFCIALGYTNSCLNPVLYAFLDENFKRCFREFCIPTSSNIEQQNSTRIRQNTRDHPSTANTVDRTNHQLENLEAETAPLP
Outline: as §1

[5] = target: T5, cloned human or rodent CNS receptors, channels, and transporters (PDSP panel) (Homo sapiens, UniProt P28223)
T5 construct: expressed in transfected cells
T5 sequence (P28223 whole entry): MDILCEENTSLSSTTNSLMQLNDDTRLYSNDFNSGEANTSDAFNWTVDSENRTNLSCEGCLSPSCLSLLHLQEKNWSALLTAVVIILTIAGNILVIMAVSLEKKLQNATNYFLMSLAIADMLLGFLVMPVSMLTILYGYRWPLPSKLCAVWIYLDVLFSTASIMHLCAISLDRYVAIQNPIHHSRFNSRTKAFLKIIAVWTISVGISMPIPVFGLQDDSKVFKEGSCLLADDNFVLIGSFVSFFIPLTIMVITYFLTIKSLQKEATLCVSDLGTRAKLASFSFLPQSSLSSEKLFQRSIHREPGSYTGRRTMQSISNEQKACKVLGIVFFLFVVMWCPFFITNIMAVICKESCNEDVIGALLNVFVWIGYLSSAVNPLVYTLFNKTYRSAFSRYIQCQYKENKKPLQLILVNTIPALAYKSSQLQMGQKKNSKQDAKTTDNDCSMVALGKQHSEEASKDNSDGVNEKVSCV
Outline: as §1

[6] = target: T6, cloned human or rodent CNS receptors, channels, and transporters (PDSP panel) (Homo sapiens, UniProt P34969)
T6 construct: expressed in transfected cells
T6 sequence (P34969 whole entry): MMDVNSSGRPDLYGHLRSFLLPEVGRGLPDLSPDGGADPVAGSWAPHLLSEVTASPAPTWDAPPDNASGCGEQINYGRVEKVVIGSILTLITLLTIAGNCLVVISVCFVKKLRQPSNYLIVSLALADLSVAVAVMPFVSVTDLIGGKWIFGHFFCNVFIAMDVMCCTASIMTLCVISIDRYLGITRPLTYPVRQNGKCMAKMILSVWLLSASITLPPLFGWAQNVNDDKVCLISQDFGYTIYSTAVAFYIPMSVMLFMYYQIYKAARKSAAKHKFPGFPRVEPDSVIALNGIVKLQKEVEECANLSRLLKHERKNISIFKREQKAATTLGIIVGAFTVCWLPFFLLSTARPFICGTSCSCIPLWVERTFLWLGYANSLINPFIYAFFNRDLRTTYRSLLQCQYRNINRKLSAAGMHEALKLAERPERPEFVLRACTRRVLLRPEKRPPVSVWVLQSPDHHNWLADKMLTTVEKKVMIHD
Outline: as §1

[7] = target: T7, cloned human or rodent CNS receptors, channels, and transporters (PDSP panel) (Homo sapiens, UniProt P11229)
T7 construct: expressed in transfected cells
T7 sequence (P11229 1-460): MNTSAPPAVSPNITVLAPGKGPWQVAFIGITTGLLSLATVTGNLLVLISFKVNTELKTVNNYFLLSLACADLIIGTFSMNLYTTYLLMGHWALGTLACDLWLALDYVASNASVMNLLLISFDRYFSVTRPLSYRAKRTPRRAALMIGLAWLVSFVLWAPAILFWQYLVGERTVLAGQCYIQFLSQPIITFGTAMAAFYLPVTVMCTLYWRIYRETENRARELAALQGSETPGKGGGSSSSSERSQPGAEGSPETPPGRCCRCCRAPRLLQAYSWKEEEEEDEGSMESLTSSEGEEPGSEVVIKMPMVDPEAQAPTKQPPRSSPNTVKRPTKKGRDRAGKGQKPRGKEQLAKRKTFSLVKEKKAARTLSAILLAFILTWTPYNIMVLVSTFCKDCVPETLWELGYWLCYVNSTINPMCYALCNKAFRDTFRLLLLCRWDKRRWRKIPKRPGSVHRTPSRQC
Outline: as §1

[8] = target: T8, cloned human or rodent CNS receptors, channels, and transporters (PDSP panel) (Homo sapiens, UniProt P25021)
T8 construct: expressed in transfected cells
T8 sequence (P25021 whole entry): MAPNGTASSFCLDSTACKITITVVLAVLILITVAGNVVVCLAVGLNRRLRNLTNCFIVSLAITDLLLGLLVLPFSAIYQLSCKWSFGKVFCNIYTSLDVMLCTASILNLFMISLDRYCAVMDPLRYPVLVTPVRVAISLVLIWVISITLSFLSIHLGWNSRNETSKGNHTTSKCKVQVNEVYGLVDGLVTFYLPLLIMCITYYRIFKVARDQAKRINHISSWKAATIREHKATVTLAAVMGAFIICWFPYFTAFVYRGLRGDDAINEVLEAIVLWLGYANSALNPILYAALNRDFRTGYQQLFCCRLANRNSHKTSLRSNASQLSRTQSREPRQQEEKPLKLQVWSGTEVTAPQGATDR
Outline: as §1

[9] = target: T9, cloned human or rodent CNS receptors, channels, and transporters (PDSP panel) (Homo sapiens, UniProt P41145)
T9 construct: expressed in transfected cells
T9 sequence (P41145 whole entry): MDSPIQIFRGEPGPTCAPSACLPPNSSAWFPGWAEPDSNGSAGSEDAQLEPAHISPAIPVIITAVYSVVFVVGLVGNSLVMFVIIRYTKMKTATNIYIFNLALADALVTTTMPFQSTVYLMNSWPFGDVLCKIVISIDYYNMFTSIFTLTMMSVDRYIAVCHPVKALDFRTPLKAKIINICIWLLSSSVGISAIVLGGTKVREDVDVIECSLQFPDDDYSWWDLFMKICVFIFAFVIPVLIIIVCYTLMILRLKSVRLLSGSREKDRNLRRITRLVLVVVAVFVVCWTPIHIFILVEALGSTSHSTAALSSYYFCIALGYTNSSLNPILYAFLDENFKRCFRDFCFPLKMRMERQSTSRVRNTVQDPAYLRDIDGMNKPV
Outline: as §1

[10] = target: T10, cloned human or rodent CNS receptors, channels, and transporters (PDSP panel) (Homo sapiens, UniProt P47898)
T10 construct: expressed in transfected cells
T10 sequence (P47898 whole entry): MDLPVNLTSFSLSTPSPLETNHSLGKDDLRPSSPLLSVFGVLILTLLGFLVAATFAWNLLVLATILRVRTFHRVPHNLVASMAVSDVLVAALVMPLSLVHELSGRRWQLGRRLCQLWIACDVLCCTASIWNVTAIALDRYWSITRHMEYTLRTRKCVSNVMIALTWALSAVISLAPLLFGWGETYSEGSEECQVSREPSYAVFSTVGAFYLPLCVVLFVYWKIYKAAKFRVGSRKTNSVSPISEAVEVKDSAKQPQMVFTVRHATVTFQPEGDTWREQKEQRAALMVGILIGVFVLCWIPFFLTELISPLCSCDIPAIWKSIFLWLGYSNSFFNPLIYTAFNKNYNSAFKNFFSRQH
Outline: as §1

CCC(=O)N1CCC(NC(=O)Nc2ccc(OC(F)(F)F)cc2)CC1 [UNC10302681A, TPPU]
Mean % ([1]; D4, mean inhibition): 5.93% | Inhibition 1 ([1]; D4, replicate 1): 5.07% | Inhibition 2 ([1]; D4, replicate 2): 3.44% | Inhibition 3 ([1]; D4, replicate 3): 0% | Inhibition 4 ([1]; D4, replicate 4): 15.2% | Mean % ([2]; 5-HT1E, mean inhibition): -4.36% | Inhibition 1 ([2]; 5-HT1E, replicate 1): 0.45% | Inhibition 2 ([2]; 5-HT1E, replicate 2): -10.14% | Inhibition 3 ([2]; 5-HT1E, replicate 3): -9.09% | Inhibition 4 ([2]; 5-HT1E, replicate 4): 1.34% | Mean % ([3]; H1, mean inhibition): 74.57% | Inhibition 1 ([3]; H1, replicate 1): 97.51% | Inhibition 2 ([3]; H1, replicate 2): 87.07% | Inhibition 3 ([3]; H1, replicate 3): 65.55% | Inhibition 4 ([3]; H1, replicate 4): 48.14% | Mean % ([4]; MOR, mean inhibition): 7.56% | Inhibition 1 ([4]; MOR, replicate 1): 7.83% | Inhibition 2 ([4]; MOR, replicate 2): 3.61% | Inhibition 3 ([4]; MOR, replicate 3): 10.7% | Inhibition 4 ([4]; MOR, replicate 4): 8.11% | Mean % ([5]; 5-HT2A, mean inhibition): -2.37% | Inhibition 1 ([5]; 5-HT2A, replicate 1): 0.31% | Inhibition 2 ([5]; 5-HT2A, replicate 2): -4.96% | Inhibition 3 ([5]; 5-HT2A, replicate 3): -8.74% | Inhibition 4 ([5]; 5-HT2A, replicate 4): 3.92% | Mean % ([6]; 5-HT7A, mean inhibition): 28.67% | Inhibition 1 ([6]; 5-HT7A, replicate 1): 34.17% | Inhibition 2 ([6]; 5-HT7A, replicate 2): 16.81% | Inhibition 3 ([6]; 5-HT7A, replicate 3): 23.63% | Inhibition 4 ([6]; 5-HT7A, replicate 4): 40.05% | Mean % ([7]; M1, mean inhibition): -5.22% | Inhibition 1 ([7]; M1, replicate 1): 4.61% | Inhibition 2 ([7]; M1, replicate 2): -16.27% | Inhibition 3 ([7]; M1, replicate 3): -3.29% | Inhibition 4 ([7]; M1, replicate 4): -5.93% | Mean % ([8]; H2, mean inhibition): -16.74% | Inhibition 1 ([8]; H2, replicate 1): -3.12% | Inhibition 2 ([8]; H2, replicate 2): -11.73% | Inhibition 3 ([8]; H2, replicate 3): -19.51% | Inhibition 4 ([8]; H2, replicate 4): -32.59% | Mean % ([9]; KOR, mean inhibition): -14.38% | Inhibition 1 ([9]; KOR, replicate 1): -11.64% | Inhibition 2 ([9]; KOR, replicate 2): -17.46% | Inhibition 3 ([9]; KOR, replicate 3): -11.75% | Inhibition 4 ([9]; KOR, replicate 4): -16.68% | Mean % ([10]; 5-HT5A, mean inhibition): -10.71% and -8.22% | Inhibition 1 ([10]; 5-HT5A, replicate 1): 25.37% and 9.24% | Inhibition 2 ([10]; 5-HT5A, replicate 2): -13.71% and -7.98% | Inhibition 3 ([10]; 5-HT5A, replicate 3): -53.57% and -12.99% | Inhibition 4 ([10]; 5-HT5A, replicate 4): -0.94% and -21.14%

Cl.NC(=O)c1cnc(N[C@@H]2CCCC[C@@H]2N)nc1Nc1cccc(-n2nccn2)c1 [UNC10302682A, P505-15 (PRT06207 HCl)]
Inhibition 1 ([1]; Receptor D4, 10 μM): 7.46% | Inhibition 2 ([1]; Receptor D4, 10 μM): 12.14% | Inhibition 3 ([1]; Receptor D4, 10 μM): 13.58% | Inhibition 4 ([1]; Receptor D4, 10 μM): 14.53% | Mean % ([1]; Receptor D4, 10 μM, mean of Inhibition 1-4): 11.93% | Inhibition 1 ([2]; Receptor 5-HT1E, 10 μM): -23.96% | Inhibition 2 ([2]; Receptor 5-HT1E, 10 μM): -26.62% | Inhibition 3 ([2]; Receptor 5-HT1E, 10 μM): 0% | Inhibition 4 ([2]; Receptor 5-HT1E, 10 μM): -50.26% | Mean % ([2]; Receptor 5-HT1E, 10 μM, mean of Inhibition 1-4): -25.21% | Inhibition 1 ([3]; Receptor H1, 10 μM): 100.99% | Inhibition 2 ([3]; Receptor H1, 10 μM): 95.9% | Inhibition 3 ([3]; Receptor H1, 10 μM): 86.08% | Inhibition 4 ([3]; Receptor H1, 10 μM): 60.28% | Mean % ([3]; Receptor H1, 10 μM, mean of Inhibition 1-4): 85.81% | Inhibition 1 ([4]; Receptor MOR, 10 μM): 27.09% | Inhibition 2 ([4]; Receptor MOR, 10 μM): 20.29% | Inhibition 3 ([4]; Receptor MOR, 10 μM): 17.6% | Inhibition 4 ([4]; Receptor MOR, 10 μM): 20.19% | Mean % ([4]; Receptor MOR, 10 μM, mean of Inhibition 1-4): 21.29% | Inhibition 1 ([5]; Receptor 5-HT2A, 10 μM): 13.95% | Inhibition 2 ([5]; Receptor 5-HT2A, 10 μM): 2.61% | Inhibition 3 ([5]; Receptor 5-HT2A, 10 μM): 8.53% | Inhibition 4 ([5]; Receptor 5-HT2A, 10 μM): 0.63% | Mean % ([5]; Receptor 5-HT2A, 10 μM, mean of Inhibition 1-4): 6.43% | Inhibition 1 ([6]; Receptor 5-HT7A, 10 μM): 33.86% | Inhibition 2 ([6]; Receptor 5-HT7A, 10 μM): 20.22% | Inhibition 3 ([6]; Receptor 5-HT7A, 10 μM): 54.31% | Inhibition 4 ([6]; Receptor 5-HT7A, 10 μM): 52.91% | Mean % ([6]; Receptor 5-HT7A, 10 μM, mean of Inhibition 1-4): 40.33% | Inhibition 1 ([7]; Receptor M1, 10 μM): 35.84% | Inhibition 2 ([7]; Receptor M1, 10 μM): 24.74% | Inhibition 3 ([7]; Receptor M1, 10 μM): 0.85% | Inhibition 4 ([7]; Receptor M1, 10 μM): 16.46% | Mean % ([7]; Receptor M1, 10 μM, mean of Inhibition 1-4): 19.47% | Inhibition 1 ([8]; Receptor H2, 10 μM): 59.21% | Inhibition 2 ([8]; Receptor H2, 10 μM): 38.77% | Inhibition 3 ([8]; Receptor H2, 10 μM): 21.91% | Inhibition 4 ([8]; Receptor H2, 10 μM): -3.64% | Mean % ([8]; Receptor H2, 10 μM, mean of Inhibition 1-4): 29.06% | Inhibition 1 ([9]; Receptor KOR, 10 μM): -6.83% | Inhibition 2 ([9]; Receptor KOR, 10 μM): -18.02% | Inhibition 3 ([9]; Receptor KOR, 10 μM): -46.91% | Inhibition 4 ([9]; Receptor KOR, 10 μM): -15.34% | Mean % ([9]; Receptor KOR, 10 μM, mean of Inhibition 1-4): -21.78% | Inhibition 1 ([10]; Receptor 5-HT5A, 10 μM): -3.51% | Inhibition 2 ([10]; Receptor 5-HT5A, 10 μM): -8.26% | Inhibition 3 ([10]; Receptor 5-HT5A, 10 μM): 4.4% | Inhibition 4 ([10]; Receptor 5-HT5A, 10 μM): 6.38% | Mean % ([10]; Receptor 5-HT5A, 10 μM, mean of Inhibition 1-4): -0.25%
